These results are taken from article PMC5371667, “Targeting Bile Acid Receptors: Discovery of a Potent and Selective Farnesoid X Receptor Agonist as a New Lead in the Pharmacological Approach to Liver Diseases” (Frontiers in Pharmacology, 2017).

Series [1] has as its target T1, GST-fusion FXR-LBD (Homo sapiens, UniProt Q96RI1).
T1 construct: 10 nM of purified GST-tagged FXR-LBD protein
T1 sequence (Q96RI1 262-486 limits assumed): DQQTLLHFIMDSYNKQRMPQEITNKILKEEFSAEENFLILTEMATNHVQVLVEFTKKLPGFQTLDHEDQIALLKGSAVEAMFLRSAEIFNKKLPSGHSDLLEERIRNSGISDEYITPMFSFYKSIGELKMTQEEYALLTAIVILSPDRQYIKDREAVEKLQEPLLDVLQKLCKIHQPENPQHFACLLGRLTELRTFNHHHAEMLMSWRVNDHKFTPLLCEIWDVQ
In words: Alpha Screen coactivator (SRC-1 peptide) recruitment assay. The settings on record: recruitment of SRC-1 co-activator peptide, Alfa Screen, Table 1; for Efficacy: 6-ECDCA = 100. The format is biochemical. As to the method:
Activation of FXR was determined by Alpha Screen Technology in a Coactivator Recruitment Assay. Anti-GST-coated acceptor beads were used to capture the GST-fusion FXR-LBD, whereas the biotinylated-SRC-1 peptide was captured by the streptavidin donor beads. Upon illumination at 680 nm, chemical energy is transferred from donor to acceptor beads across the complex streptavidin-donor/[…]-LBD/anti-GST-acceptor and a signal is produced. The assay was performed in white, low-volume, 384-well Optiplates (PerkinElmer) using a final volume of 25 μL containing final concentrations of 10 nM of purified GST-tagged FXR-LBD protein, 30 nM biotinylated SRC-1 peptide, 20 μg/mL anti-GST acceptor beads, and 10 μg/mL of streptavidin donor bead (PerkinElmer). The assay buffer contained 50 mM Tris (pH 7.4), 50 mM KCl and 1 mM DTT. The stimulation times with 1 μL of tested compound (dissolved in 50% DMSO/H2O) were fixed to 30 min at room temperature. The concentration of DMSO in each well was maintained at a final concentration of 2%. After the addition of the detection mix (acceptor and donor beads), the plates were incubated in the dark for 3 h at room temperature and then were read in an Envision microplate analyzer (PerkinElmer).

For series [2] the following is noted: cited from earlier work.
Series [3] addresses T2, human GPBAR1 (Homo sapiens, UniProt Q8TDU6).
T2 construct: expressed in transfected cells; host or cells: HepG2
T2 sequence (Q8TDU6 1-330): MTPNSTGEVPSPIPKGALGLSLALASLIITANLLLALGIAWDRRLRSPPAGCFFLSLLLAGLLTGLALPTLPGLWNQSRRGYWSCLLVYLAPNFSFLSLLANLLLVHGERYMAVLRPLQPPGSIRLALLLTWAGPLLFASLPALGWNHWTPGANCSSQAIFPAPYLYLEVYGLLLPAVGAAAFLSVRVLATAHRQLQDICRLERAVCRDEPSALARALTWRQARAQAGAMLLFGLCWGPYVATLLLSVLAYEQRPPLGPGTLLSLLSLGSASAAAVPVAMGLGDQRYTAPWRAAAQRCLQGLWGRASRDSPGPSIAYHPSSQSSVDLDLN
In words: GPBAR1 transactivation on HepG2 cells (CRE luciferase reporter). The class given is cell-based. Conditions: compounds at 1 and 10 μM, TLCA 10 μM positive control. As to the method: For FXR mediated transactivation, HepG2 cells were plated at 5 × 10^4 cells/well in a 24 well plate. Cells were transfected with 200 ng of the reporter vector p(hsp27)-TK-LUC containing a FXR response element (IR1) cloned from the promoter of heat shock protein 27 (hsp27), 100 ng of pSG5-FXR, 100 ng of pSG5-RXR, and 100 ng of pGL4.70 (Promega), a vector encoding the human Renilla gene. For GPBAR1 mediated transactivation, HepG2 cells were plated at 5 × 10^4 cells/well in a 24 well-plate and transfected with 200 ng of pGL4.29 (Promega), a reporter vector containing a cAMP response element (CRE) that drives the transcription of the luciferase reporter gene luc2P, with 100 ng of pCMVSPORT6-human GPBAR1, and with 100 ng of pGL4.70 Renilla. […] TLCA (10 μM) was used as a positive control for GPBAR1 activity.
On the technique in general: Reporter assays use an easily measured gene product as a stand-in for the process of interest.

Series [4] deals with T3, hFXR (Homo sapiens, UniProt Q96RI1).
T3 construct: expressed in transfected cells; host or cells: HepG2
T3 sequence (Q96RI1 1-486): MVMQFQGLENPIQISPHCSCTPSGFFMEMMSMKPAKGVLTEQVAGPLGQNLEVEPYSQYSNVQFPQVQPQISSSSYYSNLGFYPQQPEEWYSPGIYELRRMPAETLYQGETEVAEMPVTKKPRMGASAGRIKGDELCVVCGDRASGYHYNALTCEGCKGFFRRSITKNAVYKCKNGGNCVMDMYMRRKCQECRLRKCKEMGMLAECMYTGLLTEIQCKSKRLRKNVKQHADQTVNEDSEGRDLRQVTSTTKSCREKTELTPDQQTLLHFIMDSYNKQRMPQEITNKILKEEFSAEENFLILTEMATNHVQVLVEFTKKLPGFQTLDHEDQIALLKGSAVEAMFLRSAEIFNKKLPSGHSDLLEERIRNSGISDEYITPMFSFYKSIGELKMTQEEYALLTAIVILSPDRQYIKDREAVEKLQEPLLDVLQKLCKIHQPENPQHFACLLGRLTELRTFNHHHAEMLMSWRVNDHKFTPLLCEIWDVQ
T3 sequence (P19793 1-462 partner): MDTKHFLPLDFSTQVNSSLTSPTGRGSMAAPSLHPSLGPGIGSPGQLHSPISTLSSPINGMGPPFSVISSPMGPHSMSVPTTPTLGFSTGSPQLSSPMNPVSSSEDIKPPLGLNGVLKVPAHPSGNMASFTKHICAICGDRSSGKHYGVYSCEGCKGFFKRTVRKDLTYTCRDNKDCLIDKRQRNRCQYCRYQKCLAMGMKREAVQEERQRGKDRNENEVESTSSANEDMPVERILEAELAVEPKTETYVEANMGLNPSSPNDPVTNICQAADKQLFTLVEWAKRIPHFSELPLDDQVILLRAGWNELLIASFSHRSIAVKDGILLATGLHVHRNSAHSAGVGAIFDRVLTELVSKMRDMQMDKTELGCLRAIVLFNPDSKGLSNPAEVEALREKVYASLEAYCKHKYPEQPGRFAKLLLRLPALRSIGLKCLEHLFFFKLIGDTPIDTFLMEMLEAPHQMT
In words: FXR transactivation on HepG2 cells (luciferase reporter). The format is cell-based. As for the experimental part:
HepG2 (HB, 8065 from ATCC), an immortalized human epatocarcinoma cell line, was cultured and maintained at 37°C and 5% CO2 in E-MEM additioned with 10% FBS, 1% glutamine, and 1% penicillin/streptomycin. For FXR mediated transactivation, HepG2 cells were plated at 5 × 10^4 cells/well in a 24 well plate. Cells were transfected with 200 ng of the reporter vector p(hsp27)-TK-LUC containing a FXR response element (IR1) cloned from the promoter of heat shock protein 27 (hsp27), 100 ng of pSG5-FXR, 100 ng of pSG5-RXR, and 100 ng of pGL4.70 (Promega), a vector encoding the human Renilla gene. For GPBAR1 mediated transactivation, HepG2 cells were plated at 5 × 10^4 cells/well in a 24 well-plate and transfected with 200 ng of pGL4.29 (Promega), a reporter vector containing a cAMP response element (CRE) that drives the transcription of the luciferase reporter gene luc2P, with 100 ng of pCMVSPORT6-human GPBAR1, and with 100 ng of pGL4.70 Renilla. […]. TLCA (10 μM) was used as a positive control for GPBAR1 activity.
HepG2 cells were transfected as described above and then treated with increasing concentrations of compounds. At 18 h post stimulations, cellular lysates were assayed for luciferase and Renilla activities using the Dual-Luciferase Reporter assay system (E1980, Promega). Luminescence was measured using Glomax 20/20 luminometer (Promega). Luciferase activities were normalized with Renilla activities.

Series [5] can be described thus: In vivo metabolic profile of compound 2 in mice (LC-MS). Conditions: 50 mg/kg oral of compound 2, LC-MS.
Where [6] appears, read: PBC patients, ref Mason et al., 2010.

Read-outs that look alike come from different tables or passages of the source.

Molecule `CCC1C(O)C2C3CCC(C(C)CCCO)C3(C)CCC2C2(C)CCC(N=[N+]=[N-])CC12` (stereo not shown) [compound 8] yielded an Efficacy in series [1] of 49.

As for `CCC1C(=O)C2C3CCC(C(C)CCC(=O)O)C3(C)CCC2C2(C)CCC(N=[N+]=[N-])CC12` (stereo not shown) [compound 1], in series [1], the Efficacy was 32.

As to `CC[C@H]1[C@@H](O)[C@@H]2[C@H](CC[C@]3(C)[C@@H]([C@H](C)CCC(=O)O)CC[C@@H]23)[C@@]2(C)CC[C@@H](O)C[C@@H]12` [6-ECDCA], the “patients with drug discontinuation caused by pruritus” value in series [2] (setting [6]) is reported as 40%. The “patients with pruritus (itching)” value is reported as 50–60% in series [2] (setting [6]) and 23% in series [2] (patients with NASH, ref Neuschwander-Tetri et al., 2015).

On to `CCC1C(O)C2C3CCC(C(C)CCC(=O)O)C3(C)CCC2C2(C)CCC(N)CC12` (stereo not shown) [compound 14], for which, in series [3], the GPBAR1 transactivation entry is “residual activity”.

In turn, `CC[C@H]1[C@@H](O)C2C3CC[C@H]([C@H](C)CCC(=O)NCCS(=O)(=O)O)[C@@]3(C)CCC2[C@@]2(C)CC[C@H](N=[N+]=[N-])C[C@@H]12` (stereo partly shown) [compound 2a] came in with an EC50 in series [4] (10 nM to 25 μM, 18 h) of 3.95 µM. For the same molecule, in series [4] (dose-response), the “agonist activity toward FXR” value is “full agonist activity”. In addition, the “recovery in bile and plasma after administration of compound 2” value in series [5] was “efficiently recovered in bile and in plasma”.

In series [1], `CCC1C(O)C2C3CCC(C(C)CCCO)C3(C)CCC2C2(C)CCC(N=[N+]=[N-])CC12` (stereo not shown) [compound 7] showed a concentration for a half-maximal effect (EC50) of 1.8 ± 0.21 µM and an Efficacy of 57.

For `CCC1C(O)C2C3CCC(C(C)CCCO)C3(C)CCC2C2(C)CCC(N=[N+]=[N-])CC12` (stereo not shown) [compound 3], in series [1], a half-maximal effect (EC50) was put at 0.55 ± 0.08 µM and the Efficacy is on record as 55.

Take `CCC1C(=O)C2C3CCC(C(C)CCC(=O)O)C3(C)CCC2C2(C)CCC(N)CC12` (stereo not shown) [compound 13]: the GPBAR1 transactivation result in series [3] is listed as “residual activity”.

As to `CCC1C(O)C2C3CCC(C(C)CCCO)C3(C)CCC2C2(C)CCC(N=[N+]=[N-])CC12` (stereo not shown) [compound 4], the Efficacy in series [1] is reported as 39.

In series [1], `CCC1C(O)C2C3CCC(C(C)CCC(=O)O)C3(C)CCC2C2(C)CCC(N=[N+]=[N-])CC12` (stereo not shown) [compound 6] yielded an EC50 of 1.38 ± 0.35 µM and an Efficacy of 61.

Turning to `CCC1C(=O)C2C3CCC(C(C)CCC(=O)O)C3(C)CCC2C2(C)CCC(N=[N+]=[N-])CC12` (stereo not shown) [compound 5], in series [1], the Efficacy worked out at 24.

With `CCC1C(O)C2C3CCC(C(C)CCCO)C3(C)CCC2C2(C)CCC(N)CC12` (stereo not shown) [compound 11], in series [3], the GPBAR1 transactivation result is reported as “residual activity”.

The term EC50 denotes the concentration at which the effect is half-maximal. Higher therefore signals a need for much substance.
